The source of these data is patent publication EP0036357A1, “Antalgic and antiagregant cetonic derivatives of 5,6-diaryl-1,2,4-triazines, usable in the treatment of migraine” (PIERRE FABRE S.A., priority 1980, dated 1981).

Read-outs that look alike come from different tables or passages of the source.

Series [1] can be described thus: Acute toxicity (LD50) in mice, Miller and Tainter method. Conditions: in vivo, mouse about 20 g. The source says: L'étude de la toxicité a été effectuée chez la souris conventionnelle pesant environ 20 grammes.
Les substances ont été administrées par voie orale et intrapéritonéale. Les doses létales 50 sont exprimées en mg/kg et ont été calculées selon la méthode de MILLER et TAINTER, Proc. Soc. Exper. Biol. Med. 1944, 57, 261.
A titre d'exemple dans le tableau ci-dessous figurent quelques valeurs de doses toxiques provoquant 50 % de mortalité.

Series [2] is described as follows: Tolerance on repeated administration. Format: in vivo.
In series [3] the test system is contorsions à la phényl benzoquinone. The series is described as follows: Phenylbenzoquinone writhing test (Siegmund), analgesic activity. Format: in vivo, souris. To be noted: po, 0.5 h; dose giving 50 % decrease of writhes; per os, mouse, 30 minutes before i.p. phenylbenzoquinone; read-out: DE50 (the source's name). As to the method:
L'activité sur le test des contorsions à la phényl benzoquinone (selon SIEGMUND et Coll. - J. Pharm. Exptl. Ther. 1957, 119, 453) […] administration du produit per os; la dose est exprimée en mg/kg chez la souris 30 minutes avant l'injection […] sont exprimés en pourcentage de variation du nombre de contorsions; pour les molécules les plus actives, nous avons déterminé la dose qui provoque 50 % de diminution des contorsions DE50. Dans le tableau ci-dessous nous avons répertorié les molécules dont l'activité est supérieure ou é[…] (DE50 ≃ 40).
(Writhing tests count abdominal constrictions after an irritant is injected.)

The nature of series [4]: Qualitative solubility in solvents. Format: physicochemical. Conditions: for Insoluble dans: solvents in which the compound is insoluble; for Soluble dans: solvents in which the compound is soluble.
Setting [5] is: ip, intraperitoneal route, read-out: DL50 voie I.P.
Setting [6] is: oral route, read-out: DL50 voie orale.

In the case of `COc1ccc(-c2nc(=O)n(CC(C)=O)nc2-c2ccc(OC)cc2)cc1` [ST 753, Oxo-3 acétonyl-2 di(paraméthoxyphényl) 5-6 as triazine], the LD50 in series [1] (setting [5]) was > 500 mg/kg. Also, in series [1] (setting [6]), the LD50 was > 1500 mg/kg. In addition, the “tolérées par administration répétée” value in series [2] is recorded as “les mieux tolérées”. For the same compound, the ED50 in series [3] came to 15 mg/kg. In series [4], the Insoluble dans result is given as “l'eau, les acides et bases dilués, l'éther” and the Soluble dans result is given as “l'éthanol, le benzène, le chlorure de méthylène et le chloroforme”.

On to `COc1ccc(-c2nc(=O)n(C(C)C(C)=O)nc2-c2ccc(OC)cc2)cc1` (stereo not drawn) [ST 765, Oxo-3 α méthylacétonyl-2 di (paraméthoxyphényl) 5-6 as triazine], for which the LD50 in series [1] (setting [5]) is > 1000 mg/kg. Further, in series [1] (setting [6]), the LD50 was > 2000 mg/kg. Moreover, in series [2], the “tolérées par administration répétée” value is on record as “les mieux tolérées”. Also, in series [3], the ED50 came out at 10 mg/kg. Moreover, in series [4], the Insoluble dans result is “l'eau, les acides et bases dilués, et l'éther” and the Soluble dans result is “l'éthanol, le benzène, le chlorure de méthylène et le chloroforme”.

For `CC(=O)C(C)n1nc(-c2ccc(N(C)C)cc2)c(-c2ccc(N(C)C)cc2)nc1=O` (stereo not shown) [ST 802, Oxo-3αméthylacétonyl-2 di(paradiméthylaminophényl) 5-6 as triazine], the LD50 in series [1] (setting [6]) is > 1500 mg/kg. The ED50 in series [3] came out at 5 mg/kg. Besides, in series [4], the Insoluble dans result is recorded as “l'eau, les bases diluées et l'éther” and the Soluble dans entry was “les acides dilués aqueux, l'éthanol, le benzène, le chlorure de méthylène et le chloroforme”.

Take `CN(C)c1ccc(-c2nc(=O)n(CC(=O)c3ccccc3)nc2-c2ccc(N(C)C)cc2)cc1` [ST 813, Oxo-3 acétophényl-2 di (paradiméthylaminophényl) 5-6 as triazine]: in series [1] (setting [5]), the LD50 was ~750 mg/kg. In series [1] (setting [6]), the LD50 was > 1000 mg/kg. In series [4], the Insoluble dans result is on record as “l'eau, les bases diluées, le benzène, l'éthanol et l'éther” and the Soluble dans result is recorded as “les acides dilués aqueux, le chlorure de méthylène et le chloroforme”.

In the case of `COc1ccc(-c2nc(=O)n(CC(=O)c3ccc(O)c(O)c3)nc2-c2ccc(OC)cc2)cc1` [ST 827, Oxo-3 (3,4 dihydroxyphénacyl)-2 di(paraméthoxyphényl) 5-6 as triazine], the LD50 in series [1] (setting [6]) was > 1000 mg/kg. In series [4], the Insoluble dans entry is “l'eau, les acides dilués, le benzène, le chlorure de méthylène et l'éther” and the Soluble dans entry was “les bases diluées et l'éthanol”.

For the compound `CN(C)c1ccc(-c2nc(=O)n(CC(=O)c3ccc(O)c(O)c3)nc2-c2ccc(N(C)C)cc2)cc1` [ST 842, Oxo-3 (3,4 dihydroxyphénacyl)-2 di(paradiméthylaminophényl) 5-6 as triazine], the LD50 in series [1] (setting [6]) is > 1000 mg/kg. Moreover, in series [4], the Insoluble dans entry was “l'eau, le benzène, le chlorure de méthylène, l'éther” and the Soluble dans entry was “les acides et les basés dilués et l'éthanol”.

As for `COc1ccc(-c2nc(=O)n(CC(=O)c3ccc(Br)cc3)nc2-c2ccc(OC)cc2)cc1` [ST 844, Oxo-3 (p-bromophénacyl)-2 di(paraméthoxyphényl) 5-6 as triazine], the LD50 in series [1] (setting [5]) is ~800 mg/kg. Further, in series [1] (setting [6]), the LD50 was > 2000 mg/kg. In addition, in series [4], the Insoluble dans result was “l'eau, les acides et bases dilués” and the Soluble dans result is “l'éthanol, le benzène, le chlorure de méthylène, le chloroforme”.

For the compound `COc1ccc(-c2nc(=O)n(C(C(=O)c3ccccc3)c3ccccc3)nc2-c2ccc(OC)cc2)cc1` (stereo not drawn) [ST 908, Oxo-3 (α phénylacétophénone)-2 di (paraméthoxyphényl)-5-6 as triazine], the LD50 in series [1] (setting [5]) was > 500 mg/kg; in series [1] (setting [6]), > 1000 mg/kg. Also, the Insoluble dans entry in series [4] is “l'eau, les acides et les bases dilués”. Also, the Soluble dans result in series [4] was “l'éthanol, le chlorure de méthylène, le chloroforme et l'éther”.

As for `CC(=O)Cn1nc(-c2ccc(N(C)C)cc2)c(-c2ccc(N(C)C)cc2)nc1=O` [ST 910, Oxo-3 acétonyl-2 di(paradiméthylaminophényl) 5-6 as triazine], in series [1] (setting [6]), the LD50 is > 1500 mg/kg. In addition, the ED50 in series [3] came out at 4 mg/kg. Also, in series [4], the Insoluble dans result is recorded as “l'eau et les bases diluées, le benzène et l'éther” and the Soluble dans entry is on record as “les acides dilués, l'éthanol, le chlorure de méthylène et le chloroforme”.

For the compound `CN(C)c1ccc(-c2nc(=O)n(C(C(=O)c3ccccc3)c3ccccc3)nc2-c2ccc(N(C)C)cc2)cc1` (stereo not drawn) [ST 911, Oxo-3 (α phénylacétophénone)-2 di(paradiméthylaminophényl) 5-6 as triazine], in series [1] (setting [6]), the LD50 is > 1000 mg/kg. Besides, in series [4], the Insoluble dans result is “l'eau, les bases diluées, l'éthanol et l'éther” and the Soluble dans entry is on record as “les acides dilués, le benzène, le chlorure de méthylène et le chloroforme”.

With `CC(=O)CCCn1nc(-c2ccc(N(C)C)cc2)c(-c2ccc(N(C)C)cc2)nc1=O` [ST 924, Oxo-3 (δ propylméthylcétone)-2 di(p-diméthylaminophényl)-5-6 as triazine], in series [1] (setting [6]), the LD50 is > 1500 mg/kg. Moreover, in series [3], the ED50 was 7 mg/kg.

Take `CCC(=O)CCn1nc(-c2ccc(N(C)C)cc2)c(-c2ccc(N(C)C)cc2)nc1=O` [ST 925, Oxo-3 ( δ diéthylcétone)-2 di(paradiméthyaminophényl) 5, 6 as triazine]: in series [1] (setting [5]), the LD50 is > 500 mg/kg. In series [1] (setting [6]), the LD50 was > 1000 mg/kg. Moreover, the ED50 in series [3] is 5 mg/kg. Moreover, in series [4], the Insoluble dans entry is on record as “l'eau, les bases diluées et l'éther” and the Soluble dans entry is on record as “les acides dilués, l'éthanol, le benzène, le chlorure de méthylène et le chloroforme”.

`CCC(=O)CCn1nc(-c2ccc(OC)cc2)c(-c2ccc(OC)cc2)nc1=O` [ST 966, Oxo-3 (δ diéthylcétone)-2 di(paraméthoxyphényl)-5, 6 as triazine]: the LD50 in series [1] (setting [6]) was > 2000 mg/kg. Besides, in series [4], the Insoluble dans entry is “l'eau, les bases et les acides dilués et l'éther” and the Soluble dans entry is given as “l'éthanol, le benzène, le chlorure de méthylène et le chloroforme”.

In the case of `O=C(OCC(O)CO)c1ccccc1Nc1ccnc2cc(Cl)ccc12` (stereo not shown) [glafénine, reference compound], the ED50 in series [3] is ~40 mg/kg.
